# Results as given in ChEMBL document CHEMBL1135057, “A combinatorial library of indinavir analogues and its in vitro and in vivo studies” (Bioorg Med Chem Lett, 2002).
# Key:
# [1] = molecular target: T1, Human immunodeficiency virus type 1 protease (Human immunodeficiency virus 1, UniProt Q72874); assay: In vitro inhibitory activity against mutant HIV-1 (A-44)protease
# [2] = test system: Human immunodeficiency virus 1; assay: Inhibition of the spread of viral infection in MT-4 human T-lymphoid cells infected by IIIb isolate; format: functional; conditions: read-out: CIC95
# [3] = molecular target: T1, Human immunodeficiency virus type 1 protease; assay: In vitro inhibitory activity against wild type HIV-1 protease
# [4] = Tested for the half life period in dog; format: ADME, organism-based, Canis lupus familiaris; conditions: in vivo
# Canis familiaris = organism: Canis familiaris; assay: Tested for the pharmacokinetic data, time required to reach Cmax (Tmax) in dog; format: ADME, organism-based, Canis lupus familiaris; conditions: in vivo
# [5] = Tested for the pharmacokinetic data, area under the curve of concentration versus time in dog; format: ADME, organism-based, Canis lupus familiaris; conditions: in vivo
# [6] = Tested for the pharmacokinetic data, maximum concentration (Cmax) in dog; format: ADME, organism-based, Canis lupus familiaris; conditions: in vivo
# [7] = Tested for the pharmacokinetic data, maximum concentration (Cmax) in dog at dosage of 10 mpk; format: ADME, organism-based, Canis lupus familiaris; parameters: dose 10 mpk; conditions: in vivo, 10 mg/kg
# [8] = Tested for the pharmacokinetic data, area under the curve of concentration versus time in dog at dosage of 10 mpk; format: ADME, organism-based, Canis lupus familiaris; conditions: in vivo, 10 mg/kg
# [9] = Tested for the half life period in dog at dosage of 10 mpk; format: ADME, organism-based, Canis lupus familiaris; conditions: in vivo, 10 mg/kg
# [10] = Tested for the pharmacokinetic data, time required to reach Cmax (Tmax) in dog at dosage of 10 mpk; format: ADME, organism-based, Canis lupus familiaris; conditions: in vivo, 10 mg/kg
# [11] = molecular target: T1, Human immunodeficiency virus type 1 protease; assay: Tested in vitro for potential potency against PI-resistant HIV virus by A-44 mutant enzyme variant
# [12] = molecular target: T1, Human immunodeficiency virus type 1 protease; assay: Tested in vitro for the ability to inhibit cleavage of a substrate by the wild type HIV-1 protease
# [13] = Human immunodeficiency virus 1, T-lymphoid
SMILES,half-life [4],T max (Canis familiaris),AUC [5],Cmax [6],IC50 [1],"IC95 [2, 13]",IC50 [3],also measured
CC(C)(C)NC(=O)[C@@H]1CN(CC2(c3ccccc3)CC2)CCN1C[C@@H](O)C[C@@H](Cc1ccccc1)C(=O)N[C@@H]1c2ccccc2C[C@H]1O,–,–,–,–,257 nM,> 400 nM,7.7 nM,–
CC1=CSC2C(CN3CCN(C[C@@H](O)C[C@@H](Cc4ccccc4)C(=O)N[C@@H]4c5ccccc5C[C@H]4O)[C@H](C(=O)NC(C)(C)C)C3)N=CN12 (some centres undefined),–,–,–,–,378 nM,> 400 nM,6.7 nM,–
C[C@@H]1CC[C@@H](O)[C@@H]1NC(=O)[C@H](Cc1ccc(F)cc1)C[C@H](O)CN1CCN(Cc2cccnc2)C[C@H]1C(=O)NC(C)(C)C,39.2 min,40 min,0.371 µM·h,378 nM,–,–,–,–
Cn1cc(CN2CCN(C[C@@H](O)C[C@@H](Cc3ccccc3)C(=O)N[C@@H]3c4ccccc4C[C@H]3O)[C@H](C(=O)NC(C)(C)C)C2)c2ccccc21,–,–,–,–,332 nM,> 400 nM,6.7 nM,–
"C[C@@H]1CC[C@@H](O)C1NC(=O)[C@H](Cc1cccnc1)C[C@H](O)CN1CCN(Cc2cccnc2)C[C@H]1C(=O)NC(C)(C)C (single isomer, unassigned)",23.4 min,40 min,0.464 µM·h,524 nM,–,–,–,–
CC(C)(C)NC(=O)[C@@H]1CN(Cc2cc3ccccc3o2)CCN1C[C@@H](O)C[C@@H](Cc1ccccc1)C(=O)NC1c2ccccc2C[C@H]1O (some centres undefined),–,–,–,–,24 nM,50 nM,0.49 nM,–
"Cn1nc(C(F)(F)F)cc1-c1ccc(CN2CCN(C[C@@H](O)C[C@@H](Cc3ccccc3)C(=O)NC3c4ccccc4C[C@H]3O)[C@H](C(=O)NC(C)(C)C)C2)s1 (single isomer, unassigned)",–,–,–,–,–,6 nM,–,IC50 [11]: < 0.6 nM; IC50 [12]: < 0.1 nM
Cn1nc(C(F)(F)F)cc1-c1ccc(CN2CCN(C[C@@H](O)C[C@@H](Cc3ccccc3)C(=O)N[C@@H]3c4ccccc4C[C@H]3O)[C@H](C(=O)NC(C)(C)C)C2)s1,–,–,–,–,0.6 nM,25 nM,0.13 nM,–
CC(C)(C)NC(=O)[C@@H]1CN(Cc2cccc(C(C)(C)NC(=O)OC(C)(C)C)c2)CCN1C[C@@H](O)C[C@@H](Cc1ccccc1)C(=O)N[C@@H]1c2ccccc2C[C@H]1O,–,–,–,–,392 nM,> 400 nM,28 nM,–
"CC(C)(C)NC(=O)[C@@H]1CN(Cc2cccnc2)CCN1C[C@@H](O)C[C@@H](Cc1ccccc1)C(=O)NC1c2ccccc2C[C@H]1O.O (single isomer, unassigned) [INDINAVIR]",27.1 min,40 min,0.307 µM·h,358 nM,–,50 nM,–,IC95 [2]: 50.5 nM
"C[C@@H]1CC[C@@H](O)C1NC(=O)[C@H](CC1CC1)C[C@H](O)CN1CCN(Cc2cccnc2)C[C@H]1C(=O)NC(C)(C)C (single isomer, unassigned)",19 min,40 min,0.839 µM·h,996 nM,–,–,–,Cmax [7]: 6620 nM; AUC [8]: 5.28 µM·h; half-life [9]: 41 min; Tmax [10]: 45 min
CC(C)(C)NC(=O)[C@@H]1CN(Cc2ncc(-c3ccccc3)s2)CCN1C[C@@H](O)C[C@@H](Cc1ccccc1)C(=O)N[C@@H]1c2ccccc2C[C@H]1O,–,–,–,–,2 nM,50 nM,0.26 nM,–
CN(C)c1ccc2ccc(S(=O)(=O)N3CCN(C[C@@H](O)C[C@@H](Cc4ccccc4)C(=O)N[C@@H]4c5ccccc5C[C@H]4O)[C@H](C(=O)NC(C)(C)C)C3)cc2n1,–,–,–,–,2.2 nM,50 nM,0.22 nM,–
CC(C)(C)NC(=O)[C@@H]1CN(Cc2noc3ccccc23)CCN1C[C@@H](O)C[C@@H](Cc1ccccc1)C(=O)NC1c2ccccc2C[C@H]1O (some centres undefined),–,–,–,–,71.5 nM,400 nM,1.17 nM,–
Cn1cc(CN2CCN(C[C@@H](O)C[C@@H](Cc3ccccc3)C(=O)N[C@@H]3c4ccccc4C[C@H]3O)[C@H](C(=O)NC(C)(C)C)C2)ccc1=O,–,–,–,–,131 nM,400 nM,2.2 nM,–
"C[C@@H]1CC[C@@H](O)C1NC(=O)[C@H](CC1CCCCC1)C[C@H](O)CN1CCN(Cc2cccnc2)C[C@H]1C(=O)NC(C)(C)C (single isomer, unassigned)",42.5 min,40 min,0.504 µM·h,483 nM,–,–,–,Cmax [7]: 3760 nM; AUC [8]: 3.83 µM·h; half-life [9]: 49 min; Tmax [10]: 25 min
CC(C)(C)NC(=O)[C@@H]1CN(Cc2cc3cc(F)ccc3o2)CCN1C[C@@H](O)C[C@@H](Cc1ccccc1)C(=O)N[C@@H]1c2ccccc2C[C@H]1O,–,–,–,–,46 nM,200 nM,0.94 nM,–
CC(C)(C)NC(=O)[C@@H]1CN(CCCC(F)(F)F)CCN1C[C@@H](O)C[C@@H](Cc1ccccc1)C(=O)N[C@@H]1c2ccccc2C[C@H]1O,–,–,–,–,568 nM,> 400 nM,15.3 nM,–
CC(C)(C)NC(=O)[C@@H]1CN(Cc2nc3ccccc3o2)CCN1C[C@@H](O)C[C@@H](Cc1ccccc1)C(=O)N[C@@H]1c2ccccc2C[C@H]1O,–,–,–,–,66 nM,400 nM,1.2 nM,–
CC(C)(C)NC(=O)[C@@H]1CN(Cc2nc3ccccc3s2)CCN1C[C@@H](O)C[C@@H](Cc1ccccc1)C(=O)N[C@@H]1c2ccccc2C[C@H]1O,–,–,–,–,71.7 nM,400 nM,1.2 nM,–

# Further lines, with some results ahead:
half-life [4],T max (Canis familiaris),AUC [5],Cmax [6],SMILES,IC50 [1],"IC95 [2, 13]",IC50 [3],also measured
48.2 min,40 min,0.236 µM·h,148 nM,"CC(C)(C)NC(=O)[C@@H]1CN(Cc2cccnc2)CCN1C[C@@H](O)C[C@@H](CC1CCCCC1)C(=O)NC1c2cccc(F)c2C[C@H]1O (single isomer, unassigned)",–,–,–,–
23 min,40 min,0.566 µM·h,626 nM,"CC(C)(C)NC(=O)[C@@H]1CN(Cc2cccnc2)CCN1C[C@@H](O)C[C@@H](CC1CC1)C(=O)NC1c2cccc(Cl)c2C[C@H]1O (single isomer, unassigned)",–,–,–,–
28.7 min,40 min,0.245 µM·h,268 nM,"CC(C)(C)NC(=O)[C@@H]1CN(Cc2cccnc2)CCN1C[C@@H](O)C[C@@H](Cc1cccnc1)C(=O)NC1c2cccc(F)c2C[C@H]1O (single isomer, unassigned)",–,–,–,–
81 min,40 min,0.235 µM·h,182 nM,"CC(C)(C)NC(=O)[C@@H]1CN(Cc2cccnc2)CCN1C[C@@H](O)C[C@@H](CC1CCCCC1)C(=O)NC1c2cccc(Cl)c2C[C@H]1O (single isomer, unassigned)",–,–,–,Cmax [7]: 360 nM; AUC [8]: 0.48 µM·h; half-life [9]: 53 min; Tmax [10]: 35 min
43.4 min,40 min,0.291 µM·h,313 nM,CC(C)(C)NC(=O)[C@@H]1CN(Cc2cccnc2)CCN1C[C@@H](O)C[C@@H](Cc1cccnc1)C(=O)N[C@@H]1c2ccccc2C[C@H]1O,–,–,–,–
23.9 min,40 min,0.227 µM·h,220 nM,"CC(C)(C)NC(=O)[C@@H]1CN(Cc2cccnc2)CCN1C[C@@H](O)C[C@@H](Cc1cccnc1)C(=O)NC1c2cccc(Cl)c2C[C@H]1O (single isomer, unassigned)",–,–,–,–
45.8 min,40 min,0.256 µM·h,250 nM,"CC(C)(C)NC(=O)[C@@H]1CN(Cc2cccnc2)CCN1C[C@@H](O)C[C@@H](Cc1ccccc1)C(=O)NC1c2cccc(Cl)c2C[C@H]1O (single isomer, unassigned)",–,–,–,–
44.5 min,40 min,0.258 µM·h,250 nM,"CC(C)(C)NC(=O)[C@@H]1CN(Cc2cccnc2)CCN1C[C@@H](O)C[C@@H](Cc1ccccc1)C(=O)NC1c2cccc(F)c2C[C@H]1O (single isomer, unassigned)",–,–,–,–
31.5 min,40 min,0.512 µM·h,554 nM,"C[C@@H]1CC[C@@H](O)C1NC(=O)[C@H](Cc1ccccc1)C[C@H](O)CN1CCN(Cc2cccnc2)C[C@H]1C(=O)NC(C)(C)C (single isomer, unassigned)",–,–,–,–
20.2 min,40 min,0.525 µM·h,610 nM,"CC(C)(C)NC(=O)[C@@H]1CN(Cc2cccnc2)CCN1C[C@@H](O)C[C@@H](CC1CC1)C(=O)NC1c2cccc(F)c2C[C@H]1O (single isomer, unassigned)",–,–,–,–
21.2 min,40 min,0.566 µM·h,651 nM,"CC(C)(C)NC(=O)[C@@H]1CN(Cc2cccnc2)CCN1C[C@@H](O)C[C@@H](CC1CC1)C(=O)NC1c2ccccc2C[C@H]1O (single isomer, unassigned)",–,–,–,–
54.4 min,40 min,0.26 µM·h,232 nM,"CC(C)(C)NC(=O)[C@@H]1CN(Cc2cccnc2)CCN1C[C@@H](O)C[C@@H](CC1CCCCC1)C(=O)NC1c2ccccc2C[C@H]1O (single isomer, unassigned)",–,–,–,–
48.2 min,40 min,0.197 µM·h,195 nM,CC(C)(C)NC(=O)[C@@H]1CN(Cc2cccnc2)CCN1C[C@@H](O)C[C@@H](Cc1ccc(F)cc1)C(=O)N[C@@H]1c2cccc(F)c2C[C@H]1O,–,–,–,–
50.5 min,40 min,0.181 µM·h,180 nM,"CC(C)(C)NC(=O)[C@@H]1CN(Cc2cccnc2)CCN1C[C@@H](O)C[C@@H](Cc1ccc(F)cc1)C(=O)NC1c2cccc(Cl)c2C[C@H]1O (single isomer, unassigned)",–,–,–,–
44.6 min,40 min,0.258 µM·h,264 nM,"CC(C)(C)NC(=O)[C@@H]1CN(Cc2cccnc2)CCN1C[C@@H](O)C[C@@H](Cc1ccc(F)cc1)C(=O)NC1c2ccccc2C[C@H]1O (single isomer, unassigned)",–,–,–,–
